System: MDA-MB-231 cells
Assay: real-time intracellular pH measurement with nano-pH probe during chloride channel blocker exposure
Format: cell-based, human
Settings: single MDA-MB-231 cells
Excerpt: Sensing setup. To carry out analytical characterization experiments of chitosan-modified nanopipette sensors, a two-electrode setup connected to a potentiostat (1030C, CH Instruments Inc.) was used for sensing. A 125 μm platinum wire (Goodfellow Corporation) placed into nanopipettes filled with electrolyte served as the working electrode while a pseudo Ag/AgCl electrode placed in bulk solution (PBS or cell media) served as the reference electrode. Linear sweep voltammetry was utilized for all in vitro measurements with a scan rate of 0.1 V/sec.
Intracellular measurements were performed by combining the potentiostat and scanning ion conductance microscope (SICM) with a low-noise mechanical switch. The SICM setup consisted of an Axopatch 200B amplifier (Molecular Devices) for current feedback measurements, a MP-285 motorized micromanipulator (Sutter Instrument) for coarse positioning of the nano-pH probe, a piezo stage (NanoCube, Physik Instrumente) for fine positioning and insertion of the nano-pH probe sensors, and a programmable interface for hardware control of the setup. This system is run by custom software written in LabVIEW (National Instruments). All experiments with cells were conducted on an inverted fluorescence microscope (Olympus IX 70) equipped with an eyepiece camera (Dino-Eye, Big C).
Cell culture. […]
Chitosan-modified nanopipettes were inserted to individual cells using a customized scanning ion conductance microscope which detects current feedback for positioning the nanopipettes. […] After the insertion of the nano-pH probe into a cell, linear sweep voltammograms were recorded and the current-responses at a bias potential of 0.6 V were used to calculate the intracellular pH levels of single cells.
The present nano-pH probe can be used to monitor intracellular pH changes during drug therapy. […] Conventionally, the change in pH has been measured indirectly by introduction of fluorescent dye (BCECF-AM)^47,48. […] The measured pH levels stabilized by 4 min post NPPB introduction. […]

## O=C(O)c1cc([N+](=O)[O-])ccc1NCCCc1ccccc1 [NPPB, 5-nitro-2-(3-phenylpropylamino)-benzoate]
100 μM NPPB
  time by which measured pH levels stabilized post NPPB introduction: ≤ 4 min
  time within which intracellular pH level dropped significantly after introduction of NPPB: ≤ 2 min
100 μM NPPB in cell media, readings every 21 sec for 7 min, baseline around 7
  lowest intracellular pH level after introduction of NPPB: 2.5

From US20180045675A1, “SINGLE-CELL INTRACELLULAR NANO-PH PROBES” (The Regents of the University of California, priority 2015, published 2018)
